Laboratory results as given in US20240269157A1, “COMPOSITIONS AND METHODS FOR OVERCOMING MICROENVIRONMENT-MEDIATED RESISTANCE VIA E-SELECTIN TARGETING” (GLYCOMIMETICS, INC., priority 2021, published 2024).

Assays:
KG1 AML tumor cells = assay: KG1 AML mouse model survival; format: in vivo, NSG mice; details: for median survival time (MST): Compound A 40 mg/kg i.p. qdx14, 5-azacitidine 5 mg/kg i.p. q3dx5
Protocol: A KG1 AML mouse model was also employed to determine whether the E-selectin antagonist Compound A could enhance the anti-tumor effect of 5-azacitidine. Female NSG mice (10 per cohort, six weeks of age) received i.v. injections of 5×10^6 KG1 AML tumor cells per mouse. Beginning 7 days post injection, mice were randomized into four cohorts and treated with either saline (i.p. (intraperitoneal), qdx14 (once daily for 14 days)), Compound A (40 mg/kg i.p. qdx14), 5-azacitidine (5 mg/kg i.p. q3dx5), or a combination of Compound A and 5-azacitidine. The efficacies of the treatments on survival were determined by the Kaplan-Meier estimator and log-rank statistics were used to test for significant differences in survival (FIG. 11). The median survival time (MST) of mice treated with 5-azacitidine was 88 days and statistically different from that of mice treated with saline (MST=69.5 days) or Compound A alone (MST=69 days). […] At study conclusion, (day 104 post tumor injection) 20% of mice treated with 5-azacitidine remained alive.

[1] = target: T1, recombinant human E-selectin-Fc chimera (Homo sapiens, UniProt P16581); assay: Adhesion of KG1 AML cells to E-selectin in vitro; format: cell-based
T1 construct: purchased R&D Systems 724-ES
T1 sequence (P16581 with tags, fused parts or gaps limits assumed): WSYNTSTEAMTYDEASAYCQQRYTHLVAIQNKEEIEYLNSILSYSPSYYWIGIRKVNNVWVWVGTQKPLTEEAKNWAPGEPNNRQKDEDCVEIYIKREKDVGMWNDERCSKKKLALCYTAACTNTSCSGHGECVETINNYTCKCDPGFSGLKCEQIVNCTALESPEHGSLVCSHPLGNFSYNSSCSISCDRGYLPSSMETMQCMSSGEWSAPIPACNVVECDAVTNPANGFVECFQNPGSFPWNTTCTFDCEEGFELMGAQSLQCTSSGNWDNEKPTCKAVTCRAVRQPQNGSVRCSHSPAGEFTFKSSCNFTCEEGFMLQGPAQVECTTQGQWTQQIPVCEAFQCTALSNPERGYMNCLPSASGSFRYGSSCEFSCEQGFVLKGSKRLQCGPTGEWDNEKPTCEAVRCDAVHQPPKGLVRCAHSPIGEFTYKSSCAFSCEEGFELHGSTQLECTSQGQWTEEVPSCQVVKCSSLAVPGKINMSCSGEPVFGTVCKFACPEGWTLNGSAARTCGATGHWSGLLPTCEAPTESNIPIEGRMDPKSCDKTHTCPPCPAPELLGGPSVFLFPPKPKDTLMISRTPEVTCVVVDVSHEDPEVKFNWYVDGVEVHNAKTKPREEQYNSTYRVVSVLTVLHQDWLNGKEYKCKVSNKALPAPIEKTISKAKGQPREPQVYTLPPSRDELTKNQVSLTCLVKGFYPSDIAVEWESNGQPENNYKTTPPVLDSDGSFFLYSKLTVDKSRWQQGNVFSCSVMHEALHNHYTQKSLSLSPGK
Protocol: To further explore this hypothesis, the ability of Compound A to disrupt adhesion of KG1 AML cells to E-selectin was assessed using an in vitro assay. Recombinant human E-selectin-Fc chimera was purchased from R&D Systems (724-ES). KG1 AML cell line was purchased from ATCC (CRL-8031) and cultured in RPMI-1640 medium supplemented with 10% fetal bovine serum (FBS). Costar 96-well polystyrene medium binding assay plates were purchased from Corning (9017). 5-azacitidine (5-AZA) was purchased from Sigma-Aldrich (A2386). Calcein AM was purchased from Molecular Probes (C3100MP). FITC-conjugated antibody reactive with cutaneous lymphocyte antigen (HECA-452-FITC) was purchased from BD Pharmingen (555947).
The wells of a 96-well polystyrene plate were coated with 100 μL of 2 μg/mL recombinant human E-selectin-Fc chimera for 2 hours at 37° C., and then washed three times with Hank's Balanced Saline Solution (HBSS). KG1 cells were fluorescently labeled in culture medium with 3 μM Calcein AM for 60 minutes at 37° C., pelleted by centrifugation at 250×g for 10 minutes, then resuspended in HBSS to 2.5×10^5 cells per mL. Next, 2.5×10^4 cells were added to each well, and the cells were allowed to adhere for 45 minutes at room temperature. In some cases, cells were treated daily with 100 nM 5-azacitidine for 96 hours prior to labeling with Calcein AM and adhesion to E-selectin. Appropriate wells received 1 μL of 10 mM Compound A (final concentration in well: 100 μM) and after 30 minutes the wells were observed by fluorescence microscopy and pre-wash fluorescence measurements were taken using a FlexStation plate reader (excitation 485 nm, emission 538 nm, cutoff 530 nm). Subsequently, the wells were washed gently three times with HBSS and observations by fluorescence microscopy and fluorescence readings were repeated.

[2] = tested on: patient-derived primary AML xenograft (JAK2 and c-Kit); assay: PDX model (mutations in JAK2 and c-Kit), LSC retention and CyTOF of BM cells; format: in vivo, mice
Source text: Intra-vital imaging was employed to investigate the effects of Compound B on AML cell motility in the bone marrow of triple reporter mice (Blood: dextran-TRITC; Host T-cells: DsRed; Host myeloid CD11 cells: EYFP) injected with AML cells carrying a turquoise fluorescent protein reporter gene. […] Individual cells were dislodged from the niche and traveled long-distance (FIG. 17C). The combined inhibition of E-selectin and CXCR4 depleted bone marrow vascular niche areas of leukemia cells.
In order to better understand how the augmented AML mobilization improves the efficacy of AML therapy, BM cells from PDX mice treated for 2 weeks with Compound A, Compound B, venetoclax/HMA (Ven/HMA), and their combinations were analyzed by single-cell proteomics (CyTOF). […] However, pharmacological antagonists of E-selectin (Compound A) or E-selectin/CXCR4 (Compound B) protected endothelial cells from Ven/HMA-induced detrimental insults through upregulation of survival signaling cascades, including pAKT, pERK, pMAPK and […] eNOS expression in endothelial cells compared to Ven/HMA treatment alone.

KG1 cells = assay: Global DNA methylation (5-mC) ELISA in KG1 cells; details: 100 nM 5-AZA, 96 hours (untreated 0.33%)
Protocol: Prior to assessing the effect of 5-AZA on specific gene expression, its effect on global DNA methylation was assessed by specifically measuring levels of 5-methylcytosine (5-mC) in a colorimetric ELISA-like reaction. DNA was isolated from cell pellets using a DNA Isolation Kit for Cells and Tissues (Roche Catalog No. 11 814 770 001). DNA was quantified using a DNA Quantification Assay Kit (BioVision Catalog No. K539-200). Global DNA methylation was measured using the MethylFlash™ Global DNA Methylation (5-mC) ELISA Easy Kit (EpiGentek Catalog No. P-1030).
DNA was isolated and purified from cell pellets and evaluated for 5-mC levels.

[3] = in combination with Ven/HMA, 2 weeks, CyTOF of BM cells

| Compound | outcome of mice (KG1 AML tumor cells; All mice treated) | median survival time (MST) (KG1 AML tumor cells) | fluorescence units after treatment of previously attached cells ([1]; 100 μM Compound A, 30 minutes, p=0.001) | levels of E-selectin ligand, mTOR, pFAK, pRb, cMyc [2, 3] | p21 and cleaved caspase3 [2, 3] | protection of endothelial cells from Ven/HMA-induced detrimental insults ([2]; upregulated pAKT, pERK, pMAPK, decreased eNOS vs Ven/HMA alone) | mice remaining alive at study conclusion (KG1 AML tumor cells; day 104 post tumor injection) | level of 5-mC (KG1 cells) | increase in adhesion to E-selectin ([1]; 100 nM 5-AZA 96 hours vs not treated) | fluorescence units of adhered cells ([1]; KG1 cells treated for 96 hours with 100 nM 5-AZA) |
| --- | --- | --- | --- | --- | --- | --- | --- | --- | --- | --- |
| CCC1CC(C(=O)NCCNC(=O)CCOCCOCCOCCOCCOCCOCCOCCOCCOCCOCCOCCOC)C[C@@H](O[C@@H]2OC(CO)[C@H](O)C(O[C@@H](CC3CCCCC3)C(=O)O)C2NC(C)=O)[C@@H]1OC1O[C@@H](C)[C@H](O)C(O)[C@@H]1O (some centres unmarked) [Compound A] | succumbed to progressive tumor growth | 69 days | 55.2 fluorescence units | diminished | increasing | protected |  |  |  |  |
| Nc1ncn([C@@H]2O[C@H](CO)[C@@H](O)[C@H]2O)c(=O)n1 [5-azacitidine] |  | 88 days |  |  |  |  | 20% | 0.12% | 57% | 560.6 fluorescence units |
